Paper PMC3292765 (Chemistry & biology, 2012)
Where two headings read alike, the source gives them in different places.

Key:
p67^phox [1] = target: T1, p67^phox (Homo sapiens, UniProt P19878); assay: microscale thermophoresis with labeled recombinant protein; type: binding
T1 sequence (P19878 1-212): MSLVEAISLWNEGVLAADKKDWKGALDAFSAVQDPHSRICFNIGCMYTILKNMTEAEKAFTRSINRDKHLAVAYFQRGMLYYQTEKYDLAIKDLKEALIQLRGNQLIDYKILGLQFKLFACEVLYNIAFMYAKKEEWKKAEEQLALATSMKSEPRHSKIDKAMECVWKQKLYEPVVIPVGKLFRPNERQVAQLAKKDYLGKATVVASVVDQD

p67^phox [2] = target: T1, p67^phox; assay: as above; type: binding; remark: listed apart in the source

| Compound | Kd (p67^phox [1]) | Kd (p67^phox [2]) |
| --- | --- | --- |
| Phox-I1 | ~100 nM | – |
| O=[N+]([O-])c1cccc(C2Nc3ccc([N+](=O)[O-])cc3C3C=CCC32)c1 (centres unmarked) [compound 16, Phox-I2] | – | ~150 nM |
